Laboratory results taken from BindingDB's records for patent US20250034165 (Chia Tai Tianqing Pharmaceutical Group, 2025).

What was measured:
[1] = target: Epidermal growth factor receptor (EGFR)(L858R)(T790M) (Homo sapiens, UniProt P00533, L858R/T790M); experiment: Inhibitory Activity for EGFR (L858R/T790M) Kinase
Method: (§1) A 50 ng/μL EGFR (L858R/T790M, Carna) stock solution was diluted with a kinase buffer (50 mM HEPES, 10 mM MgCl2, 2 mM DTT, 1 mM EGTA, 0.01% Tween 20), and 6 μL of 1.67× working solution at 0.004175 ng/μL (final concentration: 0.0025 ng/μL) was added to each well. Different compounds dissolved in DMSO were added to wells using a nanoliter pipettor, resulting in the final concentrations of the compounds of 10 nM to 0.0024 nM (4-fold gradient, 7 concentrations in total), and blank control wells (without enzyme) and negative control wells (with enzyme, plus vehicle DMSO) were set, 2 replicate wells for each concentration. After enzyme was reacted with the compound or vehicle for 30 min, 5×ATP at 25 μM (final concentration: 5 μM, Sigma) prepared with a kinase buffer was mixed with 5× substrate at 0.5 μM (final concentration: 0.1 μM, ULight-poly GT, PerkinElmer) at a ratio of 1:1 (v:v), and the mixture was added to each well at 4 μL/well. After being sealed with a film, the plate was incubated at room temperature for 2 h, and then 5 μL of 4×EDTA at 40 mM (final concentration: 10 mM) was added to each well. After the plate was incubated for 5 min at room temperature, 5 μL of 4× detection reagent at 8 nM (final concentration: 2 nM, Eu-anti-phospho-tyrosine antibody, PerkinElmer) was added to each well. After being incubated at room temperature for 1 h, the plate was read using a PerkinElmer Envision multi-mode microplate reader (excitation: 320 nm, emission: 665 nm), and IC50 was calculated by four-parameter fitting.

[2] = target: Epidermal growth factor receptor [T790M,C797S,L858R] (UniProt P00533, C797S/L858R/T790M); experiment: Inhibitory Activity for EGFR (L858R/T790M/C797S) Kinase
Method: as §1, with “(L858R/T790M/C797S, BPS)” for “(L858R/T790M, Carna)”, “0.00167” for “0.004175”, “0.001” for “0.0025”

[3] = target: Epidermal growth factor receptor (Homo sapiens, UniProt P00533); experiment: Inhibitory Activity for EGFR (WT) Kinase
Method: A 50 ng/μL EGFR (WT, Carna) stock solution was diluted with a kinase buffer (50 mM HEPES, 10 mM MgCl2, 2 mM DTT, 1 mM EGTA, 0.01% Tween 20), and 6 μL of 1.67× working solution at 0.005 ng/μL (final concentration: 0.003 ng/μL) was added to each well. Different compounds dissolved in DMSO were added to the wells using a nanoliter pipettor, resulting in the final concentrations of the compounds of 100 nM to 0.0244 nM (4-fold gradient for 7 concentrations in total), and blank control wells (without enzyme) and negative control wells (with enzyme, plus vehicle DMSO) were set, 2 replicate wells for each concentration. After enzyme was reacted with the compound or vehicle for 30 min, 5×ATP at 25 μM (final concentration: 5 μM, Sigma) prepared with a kinase buffer was mixed with 5× substrate at 0.5 μM (final concentration: 0.1 μM, ULight-poly GT, PerkinElmer) at a ratio of 1:1 (v:v), and the mixture was added to each well at 4 μL/well. After being sealed with a film, the plate was incubated at room temperature for 2 h, and then 5 μL of 4×EDTA at 40 mM (final concentration: 10 mM) was added to each well. After the plate was incubated for 5 min at room temperature, 5 μL of 4× detection reagent at 8 nM (final concentration: 2 nM, Eu-anti-phospho-tyrosine antibody, PerkinElmer) was added to each well.

[4] = target: Epidermal growth factor receptor [T790M,L858R] (Homo sapiens, UniProt P00533, L858R/T790M); experiment: Inhibitory Activity for EGFR (L858R/T790M) Kinase
Method: as §1

Sequence of Epidermal growth factor receptor [T790M,L858R] (P00533 25-1210 T790M/L858R limits assumed): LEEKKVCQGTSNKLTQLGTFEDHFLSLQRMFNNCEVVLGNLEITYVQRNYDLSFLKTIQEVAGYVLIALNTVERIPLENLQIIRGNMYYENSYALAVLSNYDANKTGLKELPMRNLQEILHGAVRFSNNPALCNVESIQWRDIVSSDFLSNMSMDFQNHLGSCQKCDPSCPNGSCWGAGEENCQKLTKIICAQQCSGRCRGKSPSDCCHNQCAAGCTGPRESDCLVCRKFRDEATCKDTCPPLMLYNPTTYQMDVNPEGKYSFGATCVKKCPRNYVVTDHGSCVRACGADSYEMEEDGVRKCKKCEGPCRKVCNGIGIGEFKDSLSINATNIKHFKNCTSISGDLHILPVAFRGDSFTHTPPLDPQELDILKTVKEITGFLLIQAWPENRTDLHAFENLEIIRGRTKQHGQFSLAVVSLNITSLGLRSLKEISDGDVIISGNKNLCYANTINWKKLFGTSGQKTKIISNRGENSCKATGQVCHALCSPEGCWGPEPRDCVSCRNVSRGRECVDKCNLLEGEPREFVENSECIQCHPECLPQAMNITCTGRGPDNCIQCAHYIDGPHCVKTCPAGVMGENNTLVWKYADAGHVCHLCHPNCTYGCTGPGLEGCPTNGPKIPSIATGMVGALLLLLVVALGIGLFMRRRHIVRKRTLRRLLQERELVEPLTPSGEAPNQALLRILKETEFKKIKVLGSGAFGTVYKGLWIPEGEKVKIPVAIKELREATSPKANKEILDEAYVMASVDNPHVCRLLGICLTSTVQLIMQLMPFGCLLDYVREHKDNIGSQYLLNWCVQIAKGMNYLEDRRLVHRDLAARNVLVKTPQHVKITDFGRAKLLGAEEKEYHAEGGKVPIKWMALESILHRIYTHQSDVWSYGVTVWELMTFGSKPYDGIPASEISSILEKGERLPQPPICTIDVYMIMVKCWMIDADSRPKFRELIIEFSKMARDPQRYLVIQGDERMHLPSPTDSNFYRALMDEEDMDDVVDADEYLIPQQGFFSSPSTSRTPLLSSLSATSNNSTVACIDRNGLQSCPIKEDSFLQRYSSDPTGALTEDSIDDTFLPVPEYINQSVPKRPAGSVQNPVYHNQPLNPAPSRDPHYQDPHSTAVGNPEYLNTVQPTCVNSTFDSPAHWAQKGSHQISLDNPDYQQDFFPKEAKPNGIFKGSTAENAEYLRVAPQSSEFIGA
Sequence of Epidermal growth factor receptor (EGFR)(L858R)(T790M) (P00533 25-1210 T790M/L858R limits assumed): as above
Sequence of Epidermal growth factor receptor [T790M,C797S,L858R] (P00533 25-1210 T790M/C797S/L858R limits assumed): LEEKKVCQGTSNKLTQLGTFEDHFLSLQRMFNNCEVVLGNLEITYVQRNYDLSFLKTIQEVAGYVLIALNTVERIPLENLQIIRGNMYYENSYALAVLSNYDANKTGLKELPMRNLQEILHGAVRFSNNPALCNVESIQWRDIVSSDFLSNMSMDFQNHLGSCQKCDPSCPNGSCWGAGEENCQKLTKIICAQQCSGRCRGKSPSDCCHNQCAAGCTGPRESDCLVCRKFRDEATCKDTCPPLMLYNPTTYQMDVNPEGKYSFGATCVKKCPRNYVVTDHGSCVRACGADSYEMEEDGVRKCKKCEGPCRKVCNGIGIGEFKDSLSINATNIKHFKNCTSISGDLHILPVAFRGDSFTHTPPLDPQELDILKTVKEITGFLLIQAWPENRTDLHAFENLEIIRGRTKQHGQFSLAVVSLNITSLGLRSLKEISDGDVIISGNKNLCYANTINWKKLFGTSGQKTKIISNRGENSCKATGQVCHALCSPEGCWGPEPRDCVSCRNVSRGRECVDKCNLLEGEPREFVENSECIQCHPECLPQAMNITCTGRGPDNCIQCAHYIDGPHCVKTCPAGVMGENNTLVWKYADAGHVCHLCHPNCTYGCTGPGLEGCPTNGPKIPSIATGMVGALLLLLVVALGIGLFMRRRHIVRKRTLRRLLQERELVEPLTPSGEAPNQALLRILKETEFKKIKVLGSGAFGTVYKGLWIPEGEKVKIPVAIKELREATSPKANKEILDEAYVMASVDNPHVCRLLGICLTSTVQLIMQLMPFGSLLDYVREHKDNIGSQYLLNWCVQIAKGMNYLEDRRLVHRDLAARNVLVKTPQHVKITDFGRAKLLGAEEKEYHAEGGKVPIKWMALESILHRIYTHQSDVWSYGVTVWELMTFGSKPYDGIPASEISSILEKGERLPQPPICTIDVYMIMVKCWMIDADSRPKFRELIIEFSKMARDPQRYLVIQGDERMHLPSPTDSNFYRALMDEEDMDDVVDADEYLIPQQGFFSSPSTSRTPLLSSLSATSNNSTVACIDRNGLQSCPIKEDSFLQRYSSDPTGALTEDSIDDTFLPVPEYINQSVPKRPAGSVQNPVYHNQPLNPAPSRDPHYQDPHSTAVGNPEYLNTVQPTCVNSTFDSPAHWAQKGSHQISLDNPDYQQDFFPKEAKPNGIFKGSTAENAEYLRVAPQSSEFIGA
Sequence of Epidermal growth factor receptor (P00533 whole entry): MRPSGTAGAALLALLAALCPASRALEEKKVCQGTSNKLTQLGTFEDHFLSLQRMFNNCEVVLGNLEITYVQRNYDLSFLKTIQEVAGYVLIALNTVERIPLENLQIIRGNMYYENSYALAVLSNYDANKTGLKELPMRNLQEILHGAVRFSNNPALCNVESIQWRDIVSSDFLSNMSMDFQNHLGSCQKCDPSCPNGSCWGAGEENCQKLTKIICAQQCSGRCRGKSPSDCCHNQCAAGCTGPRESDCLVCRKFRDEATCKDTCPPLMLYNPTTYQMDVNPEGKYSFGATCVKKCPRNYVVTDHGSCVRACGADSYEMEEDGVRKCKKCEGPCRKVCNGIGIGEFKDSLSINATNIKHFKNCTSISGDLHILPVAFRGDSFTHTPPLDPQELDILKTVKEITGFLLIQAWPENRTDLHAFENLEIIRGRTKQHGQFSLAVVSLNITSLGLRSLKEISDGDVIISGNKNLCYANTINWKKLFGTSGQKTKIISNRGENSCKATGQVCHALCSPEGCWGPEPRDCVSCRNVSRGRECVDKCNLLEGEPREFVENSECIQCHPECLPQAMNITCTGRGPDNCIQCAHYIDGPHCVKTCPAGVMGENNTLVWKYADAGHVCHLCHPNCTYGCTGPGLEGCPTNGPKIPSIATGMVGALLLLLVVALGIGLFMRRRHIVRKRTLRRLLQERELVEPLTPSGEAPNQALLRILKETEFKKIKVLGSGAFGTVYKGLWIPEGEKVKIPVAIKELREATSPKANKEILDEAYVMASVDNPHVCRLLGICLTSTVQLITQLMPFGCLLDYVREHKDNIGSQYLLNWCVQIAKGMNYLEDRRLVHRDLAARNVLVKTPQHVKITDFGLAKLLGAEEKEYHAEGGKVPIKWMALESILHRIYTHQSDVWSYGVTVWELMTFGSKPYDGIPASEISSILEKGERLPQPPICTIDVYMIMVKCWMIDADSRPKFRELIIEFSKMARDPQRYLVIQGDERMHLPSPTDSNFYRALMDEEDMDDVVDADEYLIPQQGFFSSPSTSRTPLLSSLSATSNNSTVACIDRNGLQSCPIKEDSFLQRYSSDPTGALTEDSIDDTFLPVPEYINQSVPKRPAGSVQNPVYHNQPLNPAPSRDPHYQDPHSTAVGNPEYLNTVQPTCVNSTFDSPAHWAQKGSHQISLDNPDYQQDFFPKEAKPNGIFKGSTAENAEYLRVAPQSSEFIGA

IC50 [1] [nM]	IC50 [2] [nM]	IC50 [3] [nM]	IC50 [4] [nM]	SMILES
0.027	0.03	1.6	–	Cc1cc2cc(n1)-c1cnn(C)c1OCCC[C@@H](C1CC1)CN1/C(=N/C2=O)Nc2cc(NCC3(C)COC3)ccc21 [US20250034165, Example 40]
0.018	0.021	1.1	–	Cc1cc2cc(n1)-c1cnn(C)c1OCCC[C@@H](C1CC1)CN1/C(=N/C2=O)Nc2cc(N(C)C3COC3)ccc21 [US20250034165, Example 41]
0.013	0.011	0.68	–	Cc1cc2cc(n1)-c1cnn(C)c1OCCC[C@@H](C1CC1)CN1/C(=N/C2=O)Nc2cc(NCCN(C)C)ccc21 [US20250034165, Example 42]
0.01	0.007	0.36	–	Cc1cc2cc(n1)-c1cnn(C)c1OCCC[C@@H](C1CC1)CN1/C(=N/C2=O)Nc2cc(NCCCN(C)C)ccc21 [US20250034165, Example 44]
0.02	0.024	0.95	–	Cc1cc2cc(n1)-c1cnn(C)c1OCCC[C@@H](C1CC1)CN1/C(=N/C2=O)Nc2ccc(N(C)CCN(C)C)cc21 [US20250034165, Example 45]
–	–	0.51	0.023	CCN1CCC(Nc2ccc3c(c2)N/C2=N\C(=O)c4cc(C)nc(c4)-c4cnn(C)c4OCCC[C@@H](C4CC4)CN23)CC1 [US20250034165, Example 48]
–	0.051	2.2	0.048	CNCCCNc1ccc2c(c1)N/C1=N\C(=O)c3cc(C)nc(c3)-c3cnn(C)c3OCCC[C@@H](C3CC3)CN12 [US20250034165, Example 49]
–	0.035	0.57	0.026	CNCCCCNc1ccc2c(c1)N/C1=N/C(=O)c3cc(C)nc(c3)-c3cnn(C)c3OCCC[C@@H](C3CC3)CN12 [US20250034165, Example 52]
0.011	0.014	0.72	–	Cc1cc2cc(n1)-c1cnn(C)c1OCCC[C@@H](C1CC1)CN1/C(=N/C2=O)Nc2cc(NCCCCN)ccc21 [US20250034165, Example 53]
0.017	0.025	0.39	–	Cc1cc2cc(n1)-c1cnn(C)c1OCCC[C@@H](C1CC1)CN1/C(=N/C2=O)Nc2ccc(NC3CCN(C(C)C)CC3)cc21 [US20250034165, Example 54]
0.017	0.022	0.5	–	CCN1CCC(Nc2ccc3c(c2)N2C[C@H](C4CC4)CCCOc4c(cnn4C)-c4cc(cc(C)n4)C(=O)/N=C/2N3)CC1 [US20250034165, Example 55]
0.031	0.016	0.77	–	Cc1cc2cc(n1)-c1cnn(C)c1OCCC[C@@H](C1CC1)CN1/C(=N/C2=O)Nc2cc(NC(C)CN(C)C)ccc21 (stereo partly specified) [US20250034165, Example 62]
0.015	0.029	0.99	–	Cc1cc2cc(n1)-c1cnn(C)c1OCCC[C@@H](C1CC1)CN1/C(=N/C2=O)Nc2cc(NCCCN3CCCC3)ccc21 [US20250034165, Example 70]
0.038	0.021	0.93	–	Cc1cc2cc(n1)-c1cnn(C)c1OCCC[C@@H](C1CC1)CN1/C(=N/C2=O)Nc2cc(NCCN3CCCC3)ccc21 [US20250034165, Example 72]
0.007	0.123	6.2	–	Cc1cc2cc(n1)-c1cnn(C)c1OCCC[C@@H](C1CC1)CN1/C(=N/C2=O)Nc2cc(NC3CCC3)ccc21 [US20250034165, Example 79]
0.031	0.019	0.56	–	Cc1cc2cc(n1)-c1cnn(C)c1OCCC[C@@H](C1CC1)CN1/C(=N/C2=O)Nc2ccc(NCCCN3CCCCC3)cc21 [US20250034165, Example 80]
0.044	0.027	0.68	–	Cc1cc2cc(n1)-c1cnn(C)c1OCCC[C@@H](C1CC1)CN1/C(=N/C2=O)Nc2ccc(NCCCN3CCOCC3)cc21 [US20250034165, Example 81]
0.04	0.023	0.79	–	Cc1cc2cc(n1)-c1cnn(C)c1OCCC[C@@H](C1CC1)CN1/C(=N/C2=O)Nc2ccc(NCCN3CCCCC3)cc21 [US20250034165, Example 83]
0.042	0.226	13	–	Cc1cc2cc(n1)-c1cnn(C)c1OCCC[C@@H](C1CC1)CN1/C(=N/C2=O)Nc2ccc(NC3CCCC3)cc21 [US20250034165, Example 87]
–	–	–	0.16	[2H]C([2H])([2H])N(C[C@H](C)Nc1ccc2c(c1)N1C[C@H](C3CC3)CCCOc3c(cnn3C)-c3cc(cc(C)n3)C(=O)/N=C\1N2)C([2H])([2H])[2H] [US20250034165, Example 123]
–	0.16	–	0.22	[2H]C([2H])([2H])N(C[C@H](C)Nc1ccc2c(c1)N/C1=N/C(=O)c3cc(C)nc(c3)-c3cnn(C)c3OCCC[C@@H](C3CC3)CN12)C([2H])([2H])[2H] [US20250034165, Example 124]
–	0.75	–	0.52	[2H]C([2H])([2H])N(C[C@@H](C)Nc1ccc2c(c1)N/C1=N/C(=O)c3cc(C)nc(c3)-c3cnn(C)c3OCCC[C@@H](C3CC3)CN12)C([2H])([2H])[2H] [US20250034165, Example 146]
